Data: patent US20230404887A1, “COMPOSITIONS TO LIMIT OR ELIMINATE THE PERCEPTION OF SWEAT MALODOR” (Firmenich SA, priority 2020, published 2023)

What was measured:
[1] = Expert perfumer evaluation of malodor reduction, dynamic olfactometer, against 3M3SH; design: species or system human; conditions: for EFFECTIVE CONCENTRATION: MO 3M3SH held fixed at mid-intensity (0.5), headspace concentration providing an effective level; for EXPERT RATING: MO 3M3SH held fixed at mid-intensity (0.5 on scale 0-1), rating of degree of malodor reduction at the effective concentration
Protocol: (§1) The effectiveness of perfuming materials in compositions to reduce the perception of, for example, axillary sweat malodors, was evaluated by an expert perfumer by 1) selecting target axillary malodor components, 2) delivering target malodor components and candidate malodor reducing materials to the nose of an expert perfumer at carefully controlled concentrations, 3) having the expert perfumer identify the concentration at which malodor reduction was obtained, and 4) rating the degree of reduction achieved at the concentration identified in step 3.
(§2) In this method, a dynamic multi-channel olfactometer was used to precisely deliver known gas phase concentrations of the test materials, using forced evaporation, into a stream of air emanating from a smelling port. The appropriate concentration of the malodor component was established prior to its being mixed with the candidate malodor reducing substance. The concentration was set at a concentration sufficient to produce an intensity of 0.5 (mid-intensity) on a scale of 0-1. The expert perfumer then dynamically adjusted the concentration of the candidate malodor reducing substance to determine the effective concentration, while maintaining a fixed concentration of the malodor component. Once the appropriate concentration had been determined, the expert perfumer evaluated the perception of the mixtures repeatedly over a period of several minutes, taking breaks in between sniffs to avoid adaptation to the components being tested, before providing a rating.
(§3) Tests were performed in a forced-evaporation, dynamic olfactometer, with malodor component concentrations held fixed at a mid-intensity. Ratings of effectiveness were based in the following scale: −2 (significant increase in malodor), −1 (slight increase in malodor), 0 (no effect), 1 (slight malodor reduction), 2 (good malodor reduction), 3 (complete malodor reduction). The malodor (MO) component abbreviations are 3H3MHA (3-methyl-3-hydroxyhexanoic acid), 3M2HA (3-methyl-2-hexenoic acid), 3M3SH (3-methyl-3-sulphanylhexanol).

[2] = Expert perfumer evaluation of malodor reduction, dynamic olfactometer, against 3M2HA; design: species or system human; conditions: for EFFECTIVE CONCENTRATION: MO 3M2HA held fixed at mid-intensity (0.5), headspace concentration providing an effective level; for EXPERT RATING: MO 3M2HA held fixed at mid-intensity (0.5 on scale 0-1), rating of degree of malodor reduction at the effective concentration
Protocol: as §1, §2, §3

Row | Compound | EFFECTIVE CONCENTRATION [1] | EXPERT RATING [1] | EFFECTIVE CONCENTRATION [2] | EXPERT RATING [2]
1 | CC(=O)CCc1ccc(O)cc1 [4-(4-HYDROXYPHENYL)-2-BUTANONE] | 6.00E−04 micrograms/L AIR | 1 | 1.50E−04 micrograms/L AIR | 3
2 | COc1ccc(C=O)cc1 [4-METHOXYBENZALDEHYDE] |  |  | 6.83E−02 micrograms/L AIR | 2
3 | COc1ccc(COC(C)=O)cc1 [4-METHOXYBENZYL ACETATE] | 2.37E+00 micrograms/L AIR | 2 | 1.18E+00 micrograms/L AIR | 3
4 | CC(=O)CCc1ccccc1 [4-PHENYL-2-BUTANONE] | 3.75E−01 micrograms/L AIR | 2 | 7.50E−01 micrograms/L AIR | 3
5 | C=CCCCCCCCCC=O [10-UNDECENAL] | 9.50E−02 micrograms/L AIR | 2 | 9.50E−03 micrograms/L AIR | 3
6 | COC(Cc1ccccc1)OC [(2,2-DIMETHOXYETHYL)BENZENE] | 3.92E+00 micrograms/L AIR | 2 | 3.92E+00 micrograms/L AIR | 3
7 | OC/C=C/c1ccccc1 [(2E)-3-PHENYL-2-PROPEN-1-OL] | 6.50E−02 micrograms/L AIR | 2 |  | 
8 | CCCCCCC/C=C\CCC=O [(4Z)-4-DODECENAL] | 2.07E−04 micrograms/L AIR | 1 | 1.03E−04 micrograms/L AIR | 2
9 | O=C1CCCCCCC/C=C/CCCCCCO1 [(10E)-OXACYCLOHEPTADEC-10-EN-2-ONE] | 2.87E−01 micrograms/L AIR | 2 | 7.17E−02 micrograms/L AIR | 2
10 | C=CCOC(=O)CCCCCC [ALLYL HEPTANOATE] |  |  | 4.13E+00 micrograms/L AIR | 3
11 | C=CCOC(=O)CCCCC [ALLYL HEXANOATE] | 2.12E+00 micrograms/L AIR | 3 | 1.06E+00 micrograms/L AIR | 3
12 | CCCCCCCCCC=O [DECANAL] | 2.50E−01 micrograms/L AIR | 2 | 5.00E−01 micrograms/L AIR | 3
13 | CCOC(=O)CC1(C)OCCO1 [ETHYL 2-METHYL-1,3-DIOXOLANE-2-ACETATE] |  |  | 7.07E+00 micrograms/L AIR | 2
14 | CCOC(=O)/C=C/c1ccccc1 [ETHYL (E)-3-PHENYL-2-PROPENOATE] | 3.67E−02 micrograms/L AIR | 2 | 7.33E−02 micrograms/L AIR | 2
15 | COC(=O)c1c(C)cc(O)c(C)c1O [METHYL 2,4-DIHYDROXY-3,6-DIMETHYLBENZOATE] | 3.50E−03 micrograms/L AIR | 3 | 3.50E−03 micrograms/L AIR | 3
16 | CCCCCC#CC(=O)OC [METHYL 2-OCTYNOATE] | 4.67E−01 micrograms/L AIR | 3 | 4.67E−01 micrograms/L AIR | 3
17 | COC(=O)/C=C/c1ccccc1 [METHYL (E)-3-PHENYL-2-PROPENOATE] | 9.33E−02 micrograms/L AIR | 2 | 7.00E−02 micrograms/L AIR | 3
18 | CCCCCCCC=O [OCTANAL] | 3.08E−01 micrograms/L AIR | 2 | 6.17E−01 micrograms/L AIR | 3
19 | CCCCCOC(=O)c1ccccc1O [PENTYL 2-HYDROXYBENZOATE] | 5.00E−01 micrograms/L AIR | 3 |  | 
20 | Cc1ccc(C(C)C)c(O)c1 [THYMOL] | 1.03E−01 micrograms/L AIR | 3 | 5.17E−02 micrograms/L AIR | 3
21 | CCCCCCCCCCC=O [UNDECANAL] | 2.17E−01 micrograms/L AIR | 3 | 5.42E−02 micrograms/L AIR | 3
